Measurements as given in patent publication US9833497B2, “Human originated EGF domain proteins and use of the same” (CHENGDU SOURCEBIO LIMITED-LIABILITY COMPANY, priority 2013, dated 2017).

Key:
Type in all cases: cell-based
E. coli BL21 = assay: MIC against Gram-negative bacteria: E. coli BL21; settings: E. coli BL21; for MIC (μg/mL) E. coli BL21 / MIC against E. coli BL21: 5×10^5 CFU/mL
Summary of the method: (§1)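 Bacteria grown in LB at 37° C to McFarland 0.5, resuspended and seeded at 5×10^5 CFU/mL in 96-well plates. Purified human EGF-domain proteins two-fold serially diluted, triplicate wells; cultured at 37° C, shaking 175 rpm. MIC = lowest protein concentration with no growth.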

Pseudomonas aeruginosa = assay: MIC against Gram-negative bacteria: Pseudomonas aeruginosa; settings: for MIC (μg/mL) P. aeruginosa / MIC against P. aeruginosa: 5×10^5 CFU/mL
Summary of the method: as §1

Proteus mirabilis = assay: MIC against Gram-negative bacteria: Proteus mirabilis; settings: for MIC (μg/mL) P. mirabilis / MIC against P. mirabilis: 5×10^5 CFU/mL
Summary of the method: as §1

Enterobacter cloacae = assay: MIC against Gram-negative bacteria: Enterobacter cloacae; settings: for MIC (μg/mL) E. cloacae / MIC against E. cloacae: 5×10^5 CFU/mL
Summary of the method: as §1

Citrobacter diversus = assay: MIC against Gram-negative bacteria: Citrobacter diversus; settings: for MIC (μg/mL) C. diversus / MIC against C. diversus: 5×10^5 CFU/mL
Summary of the method: as §1

E. coli DH5α = assay: Antibacterial activity: MIC and growth curve against E. coli DH5α in 96-well plate; settings: minimal inhibitory concentration against E. coli DH5α; 96-well plate, 5×10^5 CFU/mL, 37° C., judged after 8 h
Summary of the method: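 MIC taken as lowest protein level with no bacterial growth, tracked by A600 every 30 min during 37 °C, 175 rpm culture. Two-fold protein series 50-12.5 μg/mL final, triplicate wells, against 5×10^5 CFU/mL of LB-washed mid-log cells.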

Aeromonas hydrophila = assay: MIC against Gram-negative bacteria: Aeromonas hydrophila; settings: for MIC (μg/mL) A. hydrophila / MIC against A. hydrophila: 5×10^5 CFU/mL
Summary of the method: as §1

Klebsiella pneumonia = assay: MIC against Gram-negative bacteria: Klebsiella pneumonia; settings: for MIC (μg/mL) K. pneumonia / MIC against K. pneumonia: 5×10^5 CFU/mL
Summary of the method: as §1

Proteus vulgaris = assay: MIC against Gram-negative bacteria: Proteus vulgaris; settings: for MIC (μg/mL) P. vulgaris / MIC against P. vulgaris: 5×10^5 CFU/mL
Summary of the method: as §1

Serratia marcescens = assay: MIC against Gram-negative bacteria: Serratia marcescens; settings: for MIC (μg/mL) S. marcescens / MIC against S. marcescens: 5×10^5 CFU/mL
Summary of the method: as §1

Moraxella catarrhalis = assay: MIC against Gram-negative bacteria: Moraxella catarrhalis; settings: for MIC (μg/mL) M. catarrhalis / MIC against M. catarrhalis: 5×10^5 CFU/mL
Summary of the method: as §1

[1] = P. aeruginosa, 10 h cultivation at 37° C.
[2] = P. mirabilis, 10 h cultivation at 37° C.
[3] = E. cloacae, 10 h cultivation at 37° C.
[4] = C. diversus, 10 h cultivation at 37° C.
[5] = A. hydrophila, 10 h cultivation at 37° C.
[6] = K. pneumonia, 10 h cultivation at 37° C.
[7] = P. vulgaris, 10 h cultivation at 37° C.
[8] = S. marcescens, 10 h cultivation at 37° C.
[9] = M. catarrhalis, 10 h cultivation at 37° C.
[10] = Pseudomonas aeruginosa, 10 h cultivation at 37° C.
[11] = Proteus mirabilis, 10 h cultivation at 37° C.
[12] = Enterobacter cloacae, 10 h cultivation at 37° C.
[13] = Citrobacter diversus, 10 h cultivation at 37° C.
[14] = Aeromonas hydrophila, 10 h cultivation at 37° C.
[15] = Klebsiella pneumonia, 10 h cultivation at 37° C.
[16] = Proteus vulgaris, 10 h cultivation at 37° C.
[17] = Serratia marcescens, 10 h cultivation at 37° C.
[18] = Moraxella catarrhalis, 10 h cultivation at 37° C.

Row | Substance | MIC (E. coli DH5α) [µg/mL] | MIC (μg/mL) E. coli BL21 (E. coli BL21; 10 h cultivation at 37° C.) [µg/mL] | MIC (μg/mL) P. aeruginosa (Pseudomonas aeruginosa; [1]) [µg/mL] | MIC (μg/mL) P. mirabilis (Proteus mirabilis; [2]) [µg/mL] | MIC (μg/mL) E. cloacae (Enterobacter cloacae; [3]) [µg/mL] | MIC (μg/mL) C. diversus (Citrobacter diversus; [4]) [µg/mL] | MIC (μg/mL) A. hydrophila (Aeromonas hydrophila; [5]) [µg/mL] | MIC (μg/mL) K. pneumonia (Klebsiella pneumonia; [6]) [µg/mL] | MIC (μg/mL) P. vulgaris (Proteus vulgaris; [7]) [µg/mL] | MIC (μg/mL) S. marcescens (Serratia marcescens; [8]) [µg/mL] | MIC (μg/mL) M. catarrhalis (Moraxella catarrhalis; [9]) [µg/mL] | MIC against E. coli BL21 (E. coli BL21; 10 h cultivation at 37° C.) [µg/mL] | MIC against P. aeruginosa (Pseudomonas aeruginosa; [10]) [µg/mL] | MIC against P. mirabilis (Proteus mirabilis; [11]) [µg/mL] | MIC against E. cloacae (Enterobacter cloacae; [12]) [µg/mL] | MIC against C. diversus (Citrobacter diversus; [13]) [µg/mL] | MIC against A. hydrophila (Aeromonas hydrophila; [14]) [µg/mL] | MIC against K. pneumonia (Klebsiella pneumonia; [15]) [µg/mL] | MIC against P. vulgaris (Proteus vulgaris; [16]) [µg/mL] | MIC against S. marcescens (Serratia marcescens; [17]) [µg/mL] | other results
1 | PRT98 (DINECATPSKVSCGKFSDCWNTEGSYDCVCSPGYEPVSGAKTFKNESENTCQ; listed as Homo sapiens) | 12.5 |  |  |  |  |  |  |  |  |  |  |  |  |  |  |  |  |  |  |  | MIC (μg/mL) E. coli BL21 (E. coli BL21; 96-well plate, 37° C., 10 h): 50 µg/mL; MIC (μg/mL) P. aeruginosa (Pseudomonas aeruginosa; Pseudomonas aeruginosa, 96-well plate, 37° C., 10 h): 25 µg/mL; MIC (μg/mL) P. mirabilis (Proteus mirabilis; Proteus mirabilis, 96-well plate, 37° C., 10 h): 50 µg/mL; MIC (μg/mL) E. cloacae (Enterobacter cloacae; Enterobacter cloacae, 96-well plate, 37° C., 10 h): 25 µg/mL; MIC (μg/mL) C. diversus (Citrobacter diversus; Citrobacter diversus, 96-well plate, 37° C., 10 h): 25 µg/mL; MIC (μg/mL) A. hydrophila (Aeromonas hydrophila; Aeromonas hydrophila, 96-well plate, 37° C., 10 h): 50 µg/mL; MIC (μg/mL) K. pneumonia (Klebsiella pneumonia; Klebsiella pneumonia, 96-well plate, 37° C., 10 h): 12.5 µg/mL; MIC (μg/mL) P. vulgaris (Proteus vulgaris; Proteus vulgaris, 96-well plate, 37° C., 10 h): 12.5 µg/mL; MIC (μg/mL) S. marcescens (Serratia marcescens; Serratia marcescens, 96-well plate, 37° C., 10 h): 50 µg/mL; MIC (μg/mL) M. catarrhalis (Moraxella catarrhalis; Moraxella catarrhalis, 96-well plate, 37° C., 10 h): 100 µg/mL
2 | PRT178 (SGVTCADGPCFNGGLCVGGADPDSAYICHCPPGFQGSNCE; listed as Homo sapiens) | 25 | 50 | 25 | 50 | 50 | 50 | 12.5 | 12.5 | 12.5 | 25 | 12.5 |  |  |  |  |  |  |  |  |  | 
3 | PRT234 (DINECATLSKVSCGKFSDCWNTEGSYDCVCSPGYEPVSGAKTFKNESENTCQ; listed as Homo sapiens) | 25 | 50 | 25 | 25 | 25 | 25 | 12.5 | 12.5 | 12.5 | 25 | 12.5 |  |  |  |  |  |  |  |  |  | 
4 | PRT926 (EINECQSNPCVNNGQCVDKVNRFQCLCPPGFTGPVCQ; listed as Homo sapiens) | 25 |  |  |  |  |  |  |  |  |  |  |  |  |  |  |  |  |  |  |  | MIC (E. coli BL21; 10 h cultivation at 37° C.): 50 µg/mL; MIC (Pseudomonas aeruginosa; [1]): 25 µg/mL; MIC (Proteus mirabilis; [2]): 50 µg/mL; MIC (Enterobacter cloacae; [3]): 25 µg/mL; MIC (Citrobacter diversus; [4]): 12.5 µg/mL; MIC (Aeromonas hydrophila; [5]): 50 µg/mL; MIC (Klebsiella pneumonia; [6]): 12.5 µg/mL; MIC (Proteus vulgaris; [7]): 25 µg/mL; MIC (Serratia marcescens; [8]): 12.5 µg/mL; MIC (Moraxella catarrhalis; [9]): 25 µg/mL
5 | PRT1393 (EERSCHSHCTEHGQCKDGKCECSPGWEGDHCT; listed as Homo sapiens) | 25 |  |  |  |  |  |  |  |  |  |  | 12.5 | 25 | 12.5 | 25 | 25 | 12.5 | 50 | 50 | 12.5 | MIC against M. catarrhalis (Moraxella catarrhalis; [18]): 50 µg/mL
6 | PRT1352 (SEPECPGNCHLRGRCIDGQCICDDGFTGEDCS; listed as Homo sapiens) | 12.5 |  |  |  |  |  |  |  |  |  |  | 12.5 | 12.5 | 25 | 12.5 | 50 | 12.5 | 12.5 | 50 | 25 | MIC against M. catarrhalis (Moraxella catarrhalis; [18]): 12.5 µg/mL
